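Protocol summary: plate cells (96-well), add compound at 5 concentrations, incubate 48 h, interpolate endpoints linearly. Here, GI50 denotes the concentration required for 50% inhibition of growth. Definition used: TGI = concentration required for complete inhibition of growth.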

The first experiment concerns A498 renal. Briefly: NCI tumour cell line growth inhibition, 48 h.
`COc1cccc(COc2cc(-n3cnc4ccccc43)sc2C(N)=O)c1`: the GI50 was 0.92 µM and the TGI is more than 25 µM.
For `CCN(CC)c1ccc(/C=C/C2=[N+](C)c3ccccc3C2(C)C)c(C)c1`, the GI50 was 0.11 µM and the TGI turned out to be 4.02 µM.
`CCOC(OC1=C(C#N)CCCC1)C(CC)[Se]c1ccccc1` (stereo not drawn) yielded a TGI of more than 100 µM.
For `Fc1ccc2nc(-c3cc(-c4ccc5c(c4)OCO5)n[nH]3)[nH]c2c1`, the GI50 is 3.27 µM and the TGI was more than 100 µM.
Turning to `COC(=O)c1ccc2c(c1)C(=O)c1c-2n(CCCN=[N+]=[N-])c(=O)c2cc([N+](=O)[O-])ccc12`, the GI50 is more than 100 µM and the TGI was more than 100 µM.
In turn, `C=C1C(=O)C23C(O)C1CC[C@H]2C12CCCC(C)(COC(C)=O)[C@H]1[C@H](O)[C@]3(O)OC2` (stereo partly drawn) registered a TGI of 6.77 µM.
The compound `CN(C)C(=S)Nc1nnc(Nc2ccccc2)s1` returned a TGI of more than 100 µM.
In the case of `COc1ccc(C2=C(N3CCc4ccccc43)C(=O)NC2=O)cc1`, the GI50 is more than 16.6 µM and the TGI is more than 25 µM.
For the compound `O=[N+]([O-])c1ccc(-c2cc3c(Nc4ccc(Cl)c(C(F)(F)F)c4)ncnc3s2)cc1`, the GI50 is 0.706 µM and the TGI is 3.42 µM.

Another experiment has as its system UACC-257 melanoma. The experiment can be described thus: NCI tumour cell line growth inhibition, 48 h.
For the compound `CCn1c(-c2nonc2N)nc2ccncc21`, the GI50 is more than 25 µM and the TGI is more than 25 µM.
As for `CC(C)[O-].CC(C)[O-].CN(CCN(C)Cc1cc(F)cc(F)c1[O-])Cc1cc(F)cc(F)c1[O-].[Ti+4]`, the GI50 was 1.15 µM and the TGI stood at 3.9 µM.
Turning to `CSc1ccc(N(C)c2nc(C)nc3c2CCC3)cc1`, the GI50 is 11.6 µM and the TGI was 48.4 µM.
As to `O=C1/C(=C/c2ccc([N+](=O)[O-])cc2)COc2ccc(O)cc21`, the GI50 was 32.1 µM and the TGI was more than 100 µM.
Turning to `COc1ccc(-c2cnoc2-c2cc(OC)c3c(c2)OCCO3)cc1`, the GI50 is 11.5 µM and the TGI was more than 100 µM.
Turning to `CC(=O)n1c(=O)c2cc3c(=O)n(-c4cccc(C#N)c4)c(=O)c3cc2c1=O`, the TGI was more than 100 µM.
The same measure, in the same setting: the same measure for `COc1ccc(C2Oc3c(c(O)cc4c3[C@H](c3ccc(O)cc3O)[C@H](O)C(c3ccc(O)c(O)c3)O4)C[C@@H]2O)cc1O` (stereo partly drawn): more than 100 µM.
For the compound `CC(C)Oc1ccc(C(=O)Cn2ccnc2)cc1-n1c(CN2CCN(C(=O)COc3ccc(Cl)cc3)CC2)nc2ccccc2c1=O`, the GI50 was 13.8 µM and the TGI turned out to be 39.6 µM.
For the compound `COc1cccc(COc2cc(-n3cnc4ccccc43)sc2C(N)=O)c1`, the GI50 is more than 25 µM and the TGI is more than 25 µM.
As for `CCN(CC)c1ccc(/C=C/C2=[N+](C)c3ccccc3C2(C)C)c(C)c1`, the GI50 is 0.0546 µM and the TGI came to 0.226 µM.
Compound `CCOC(OC1=C(C#N)CCCC1)C(CC)[Se]c1ccccc1` (stereo not drawn) came in with a TGI of more than 100 µM.
`Fc1ccc2nc(-c3cc(-c4ccc5c(c4)OCO5)n[nH]3)[nH]c2c1`: the GI50 is 8.91 µM and the TGI is more than 100 µM.
The matching figures for `COC(=O)c1ccc2c(c1)C(=O)c1c-2n(CCCN=[N+]=[N-])c(=O)c2cc([N+](=O)[O-])ccc12`: more than 100 µM and more than 100 µM.
Compound `C=C1C(=O)C23C(O)C1CC[C@H]2C12CCCC(C)(COC(C)=O)[C@H]1[C@H](O)[C@]3(O)OC2` (stereo partly drawn) had a TGI of 3.67 µM.
In turn, `CN(C)C(=S)Nc1nnc(Nc2ccccc2)s1` showed a TGI of more than 100 µM.
Take `COc1ccc(C2=C(N3CCc4ccccc43)C(=O)NC2=O)cc1`: the GI50 is more than 25 µM and the TGI is more than 25 µM.
Consider `O=[N+]([O-])c1ccc(-c2cc3c(Nc4ccc(Cl)c(C(F)(F)F)c4)ncnc3s2)cc1`, for which the GI50 was 2.95 µM and the TGI is more than 26.8 µM.

The next experiment concerns NCI-H226 lung. The experiment can be described thus: NCI tumour cell line growth inhibition, 48 h.
For the compound `CCn1c(-c2nonc2N)nc2ccncc21`, the GI50 is more than 25 µM and the TGI is more than 25 µM.
For the compound `CC(C)[O-].CC(C)[O-].CN(CCN(C)Cc1cc(F)cc(F)c1[O-])Cc1cc(F)cc(F)c1[O-].[Ti+4]`, the GI50 is 2.14 µM and the TGI came out at 10.5 µM.
As to `CSc1ccc(N(C)c2nc(C)nc3c2CCC3)cc1`, the GI50 was less than 0.01 µM and the TGI is more than 100 µM.
The matching figures for `O=C1/C(=C/c2ccc([N+](=O)[O-])cc2)COc2ccc(O)cc21`: 15.3 µM and 72.4 µM.
As to `COc1ccc(-c2cnoc2-c2cc(OC)c3c(c2)OCCO3)cc1`, the GI50 was 0.738 µM and the TGI was more than 94.4 µM.
The compound `CC(=O)n1c(=O)c2cc3c(=O)n(-c4cccc(C#N)c4)c(=O)c3cc2c1=O` gave a TGI of more than 100 µM.
`COc1ccc(C2Oc3c(c(O)cc4c3[C@H](c3ccc(O)cc3O)[C@H](O)C(c3ccc(O)c(O)c3)O4)C[C@@H]2O)cc1O` (stereo partly drawn): the TGI is more than 100 µM.
In the case of `CC(C)Oc1ccc(C(=O)Cn2ccnc2)cc1-n1c(CN2CCN(C(=O)COc3ccc(Cl)cc3)CC2)nc2ccccc2c1=O`, the GI50 is 14.5 µM and the TGI amounted to 38.9 µM.
On the same counts, the results for `COc1cccc(COc2cc(-n3cnc4ccccc43)sc2C(N)=O)c1` are more than 20.5 µM and more than 25 µM.
For the compound `CCN(CC)c1ccc(/C=C/C2=[N+](C)c3ccccc3C2(C)C)c(C)c1`, the GI50 was 0.0444 µM and the TGI is 1.69 µM.
Compound `CCOC(OC1=C(C#N)CCCC1)C(CC)[Se]c1ccccc1` (stereo not drawn) showed a TGI of 49.6 µM.
Regarding `Fc1ccc2nc(-c3cc(-c4ccc5c(c4)OCO5)n[nH]3)[nH]c2c1`, the GI50 is 3.92 µM and the TGI is 40.5 µM.
On the same counts, the results for `COC(=O)c1ccc2c(c1)C(=O)c1c-2n(CCCN=[N+]=[N-])c(=O)c2cc([N+](=O)[O-])ccc12` are more than 100 µM and more than 100 µM.
For `C=C1C(=O)C23C(O)C1CC[C@H]2C12CCCC(C)(COC(C)=O)[C@H]1[C@H](O)[C@]3(O)OC2` (stereo partly drawn), the TGI was determined as 5.7 µM.
Same read-out and setting: the same measure for `CN(C)C(=S)Nc1nnc(Nc2ccccc2)s1`: more than 100 µM.
`COc1ccc(C2=C(N3CCc4ccccc43)C(=O)NC2=O)cc1`: the GI50 was more than 25 µM and the TGI was more than 25 µM.
As to `O=[N+]([O-])c1ccc(-c2cc3c(Nc4ccc(Cl)c(C(F)(F)F)c4)ncnc3s2)cc1`, the GI50 is 2.89 µM and the TGI is more than 100 µM.

These data come from PubChem BioAssay (NCI).
